Assay results from patent US8815266B2, “Peptide derivatives useful in the treatment, care or cleansing of the skin, mucosae, scalp or nails” (Lipotech, S.A., priority 2008, dated 2014).
Non-standard residues stand in square brackets, D forms with d. *: point of attachment. Palmitoyl = CCCCCCCCCCCCCCCC(=O)*; Ahx = NCCCCCC(=O)O

How the values were obtained:
[1] = tested on: hBD2; experiment: Quantification of hBD2 secreted by human keratinocytes by ELISA; format: cell-based
Experimental: (§1) The quantification of the amount of mRNA secreted was carried out by means of a real-time quantitative RT-PCR assay. 3×10^6 cells of a human keratinocyte line were used, seeded in 25 cm^2 flasks. The cells were washed and incubated for 16 h-24 h with different peptide derivatives at a concentration of 1 mm or 0.25 mm in a volume of 3 mL of DMEM medium. LPS (100 μg/mL) and L-Ile (200 μg/mL) were used as positive controls. The supernatants of the cells were stored at −80° C., to analyze the secreted hBD2 protein level and the total RNA was extracted from the cells with the RNeasy kit (Quiagen) following the protocol of the commercial company.
Quantification of the hBD2 secreted in human keratinocytes after incubation with Ac-L-Glu-L-Met-L-Ala-L-Ile-OH (Ac-SEQ ID No. 3-OH), Ac-L-Arg-Phg-Phg-OH and Ac-L-Arg-Ahx-L-Ala-OH.
The amount of hBD2 secreted by human keratinocytes was quantified by means of an ELISA assay using the Human BD-2 ELISA Development commercial kit (Peprotech) from the supernatants of the cells coming from Example 15.
Based on the absorbance data obtained, the hBD2 protein level was calculated after the calibration with recombinant hBD2. The values of hBD2 obtained were standardized with respect to the values of the control assays (untreated cells).

[2] = tested on: hBD2 promoter; experiment: Activation of the hBD2 promoter (luciferase activity assay) in a stable A549 cell line; format: cell-based, human
Experimental: Assay of activation of the hBD2 promoter in a stable cell line by the compounds of general formula (I) obtained in Example 5.
The A549 human epithelial cell line was cultured using RPMI-1640 medium supplemented with FBS and Penicillin-Streptomycin. It was routinely cultured by dividing the cultures twice a week at a 1:10 dilution using Trypsin-EDTA. 10^6 cells of the A549 line were seeded in a 60 mm disc treated with polylysine. After 24 h they were cotransfected with 10 μg of a gene construct formed by the hBD2 gene promoter followed by the luciferase protein gene (pGL3-hBD2promotor-Luc), and the pcDNA3B plasmid DNA containing the geneticin antibiotic resistance gene, at a 1:5 pcDNA3B.1/pGL3-hBD2promotor-Luc ratio. 25 μL of Lipofectamine™ 2000 were used for the transfection. After 24 h the selection was started with complete medium supplemented with the G418-Geneticin® antibiotic, the selection medium being renewed every 2 days. Different clones were isolated, which were characterized and selected based on the luciferase activity.
The selected stable lines were cultured using complete medium for the parental line supplemented with G418. They were routinely cultured by dividing the cultures twice a week at a 1:10 dilution using Trypsin-EDTA.
The capacity to activate the hBD2 promoter was determined by means of the luciferase activity assay since a transcriptional agent inducing hBD2 synthesis causes luciferase enzyme production by means of activating the hBD2 gene promoter contained in the pGL3-hBD2promotor-Luc construct, a luminescence increase being observed. The selected stable cell lines were seeded at 20,000 cells per plate. After 24 h the plates were washed and incubated for 24 h in modified RPMI-1640 medium without L-Isoleucine with different peptide derivatives at a concentration of 0.5 mM. LPS (100 μg/mL) and L-Isoleucine (25 μg/mL) were used as positive controls with the same treatment as the peptide derivatives. Once the incubation period had ended, the Steady-Glo Luciferase Assay System reagent (Promega Corp.) was added to the cells, following the protocol of the commercial company. The luminescent signal (ULAs/s) produced by the reaction between the luciferase and its substrate was quantified with a LUMIstar Galaxy plate luminometer (BMG Labtechnologies). Based on the values of luciferase activity (ULAs/s), standardized with the negative controls, the activation of the hBD2 promoter was determined.

[3] = tested on: hBD2 mRNA; experiment: Quantification of hBD2 mRNA in human keratinocytes by real-time quantitative RT-PCR; format: cell-based; conditions: 16 h-24 h
Experimental: Quantification of the hBD2 mRNA secreted in human keratinocytes after incubation with Ac-L-Glu-L-Met-L-Ala-L-Ile-OH (Ac-SEQ ID No. 3-OH), Ac-L-Arg-Phg-Phg-OH and Ac-L-Arg-Ahx-L-Ala-OH.
as §1
A retrotranscription reaction was carried out in a Mastercycler thermal cycler from 1 μg of total RNA of each sample, using the GeneAmp RNA PCR kit (Applied Biosystems) according to the protocol of the commercial company, and subsequently a real-time PCR was carried out by means of the assay with the SYBR Green I fluorophore in an ABI PRIS M 7700 Sequence Detector (Applied Biosystems).
The amount of mRNA was quantified by standardizing normalizing it with respect to the values of endogenous 18S ribosomal RNA. These values were in turn standardized with respect to the untreated cells and they were represented as the relative hBD2 mRNA level.

[4] = 0.25 mm peptide, supernatants of human keratinocytes from Example 15, standardized to untreated cells (CONTROL 100%)
[5] = peptide derivative 0.5 mM, 24 h incubation, A549 pGL3-hBD2promotor-Luc stable line, standardized with negative controls (CONTROL 100%)
[6] = 0.25 mM peptide, normalized to 18S rRNA and untreated cells (CONTROL 100%)

Row | Compound | Relative hBD2 level [1, 4] [%] | LUMINESCENCE INCREASE [2, 5] [%] | Relative hBD2 mRNA level [3, 6] [%] | also measured
1 | CC[C@H](C)[C@H](N)C(=O)O [L-Ile, L-Isoleucine, reference compound] | – | – | – | Relative hBD2 level ([1]; positive control L-Ile 200 μg/mL, keratinocyte supernatants, CONTROL 100%): 134%; LUMINESCENCE INCREASE ([2]; positive control L-Isoleucine 25 μg/mL, 24 h, A549 stable line, CONTROL 100%): 127%; Relative hBD2 mRNA level ([3]; positive control L-Ile 200 μg/mL, CONTROL 100%): 125%
2 | Ac-Arg-[Ahx]-Ala-OH | 126 | 137 | 126 | –
3 | Ac-L-Arg-Phg-Phg-OH | 116 | 120 | 201 | –
4 | Ac-L-Glu-L-Met-L-Ala-L-Ile-OH (Ac-EMAI-OH) | – | 196 | – | Relative hBD2 level ([1]; 1 mm peptide, supernatants of human keratinocytes from Example 15, standardized to untreated cells (CONTROL 100%)): 129%; Relative hBD2 mRNA level ([3]; 1 mm peptide, normalized to 18S rRNA and untreated cells (CONTROL 100%)): 323%
5 | H-L-Glu-L-Met-L-Ala-L-Ile-OH (H-EMAI-OH) | – | 125 | – | –
6 | Palm-L-Glu-L-Met-L-Ala-L-Ile-NH2 (Palmitoyl-EMAI-NH2; SMILES CCCCCCCCCCCCCCCC(=O)N[C@@H](CCC(=O)O)C(=O)N[C@@H](CCSC)C(=O)N[C@@H](C)C(=O)N[C@H](C(N)=O)[C@@H](C)CC) | – | 137 | – | –
